Experimental data as given in PubChem BioAssay AID1963858 (Molecular Pharmacology Branch, DTP, NCI, 2024).

System: HOP-62 multicell spheroids with HUVEC/MSC, viability
Test: Anticancer human tumor HOP-62 cell line growth inhibition [KRAS2];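 note: viability read after a week of compound exposure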;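 for viability, T/C: 100% = DMSO vehicle-treated spheroids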
Settings: for IC50: curve of first compound; for viability, T/C: stronger effect = lower value
Excerpt: Multicellular complex tumor spheroid response to RAS pathway inhibitors in combination with a targeted agents in patient-derived cell lines with oncogenic KRAS variants from multiple cancer types
A high-throughput screen of multi-cell type tumor spheroids was designed to identify active combinations of targeted small molecules and KRAS pathway inhibitors. Complex spheroids include a stromal component modeled by human endothelial cells (HUVEC) and fibroblasts modeled by human mesenchymal stem cells (MSCs). The concentration ranges selected for each drug and investigational agent were based upon clinically achievable concentrations if the clinical Cmax of the agent was known.
Compounds. The drugs and investigational agents: BI-3406 (NSC825286), BAY-293 (NSC824723), batoprotafib (TNO155; NSC825523), sotorasib (AMG 510; NSC818433), MRTX1257 (NSC819558), elimusertib (BAY 1895344; NSC800525), molibresib (GSK525762; NSC774829), temuterkib (LY3214996; NSC803410), venetoclax (NSC766270), alisertib (NSC759677), olaparib (NSC753686), talazoparib (NSC767125), erdafitinib (NSC781556), ipatasertib (NSC767898), cabozantinib (NSC761068), nintedanib (NSC756659), abemaciclib (NSC768073), docetaxel (NSC628503), trametinib (NSC758246), and sapanisertib (NSC764658) were obtained from the National Cancer Institute (NCI) Developmental Therapeutics Program Chemical Repository. The FDA-approved anticancer drug set is available from the Developmental Therapeutics Program. […] The stock solutions were prepared in dimethyl sulfoxide (DMSO, Sigma-Aldrich, St. Louis, MO, cat. D2650) at 800-fold the tested concentration and stored at -70 degrees C prior to their use. All drugs and investigational agents were tested over a range starting from a high concentration at or near the clinical Cmax and decreasing in half-log increments. If the clinical Cmax for an agent had not been determined, the highest concentration tested was 10 microM.
Cell Culture. All cells were maintained in an incubator at 37 degrees C and 5% CO2 with 95% humidity. The PDC lines were cultured according to standard operating procedures established by the NCI PDMR (https://pdmr.cancer.gov/sops/default.htm). Briefly, all PDCs were thawed and cultured in Matrigel-coated flasks prepared with a working solution of 1X Ham's F-12 nutrient mix, without supplementation (Invitrogen, Waltham, MA, cat. 11765054), 100 U/mL penicillin-streptomycin (Invitrogen, cat. 15140122), and 2.5% Matrigel (Corning Inc., Corning, NY, cat. 354248) for the first three passages. All PDCs were cultured in complete DMEM/F-12 media containing advanced DMEM/F-12 (Invitrogen, cat. 12634028), 4.9% defined fetal bovine serum, heat inactivated (HyClone Laboratories Inc., Logan, UT, cat. SH30070.03HI), 389 ng/mL hydrocortisone (Sigma-Aldrich, cat. H4001), 9.7 ng/mL human EGF recombinant protein (Invitrogen, cat. PHG0313), 23.4 microg/mL adenine (Sigma-Aldrich, cat. A2786), 97.3 U/mL penicillin-streptomycin (Invitrogen, cat. 15140122), 1.9 mM L-glutamine (Invitrogen, cat. 25030081), and 9.7 microM Y-27632 dihydrochloride (Tocris Bioscience, Bristol, United Kingdom, cat. 1254). The PDCs were cultured in complete DMEM/F12 media without 9.7 microM Y-27632 dihydrochloride for at least two passages prior to the screen. The established cell line HOP-62 was cultured in RPMI 1640 medium, HEPES (Invitrogen, cat. 22400105) with 10% defined fetal bovine serum (HyClone Laboratories Inc., cat. SH30070.03) and 2 mM L-glutamine (Invitrogen, cat. 25030081). The pooled donor HUVEC were cultured in endothelial cell growth medium 2 (PromoCell, Heidelberg, Germany, cat. C-22011) and the hMSC were cultured in mesenchymal stem cell growth medium 2 (PromoCell, cat. C-28009). For all experiments, HUVEC and hMSC were used at passages </=5, while the malignant cell lines were used at passages </=15. […]

[1] = second compound 0.1 µM, first compound 0.0316 µM
[2] = second compound 0.1 µM, first compound 0.1 µM
[3] = second compound 0.1 µM, first compound 0.316 µM
[4] = second compound 0.1 µM, first compound 1 µM
[5] = second compound 0.1 µM, first compound 3.16 µM
[6] = second compound 0.1 µM, first compound 10 µM
[7] = second compound 0.316 µM, first compound 0.0316 µM
[8] = second compound 0.316 µM, first compound 0.1 µM
[9] = second compound 0.316 µM, first compound 0.316 µM
[10] = second compound 0.316 µM, first compound 1 µM
[11] = second compound 0.316 µM, first compound 3.16 µM
[12] = second compound 0.316 µM, first compound 10 µM
[13] = second compound 1 µM, first compound 0.0316 µM
[14] = second compound 1 µM, first compound 0.1 µM
[15] = second compound 1 µM, first compound 0.316 µM
[16] = second compound 1 µM, first compound 1 µM
[17] = second compound 1 µM, first compound 3.16 µM
[18] = second compound 1 µM, first compound 10 µM
[19] = second compound 3.16 µM, first compound 0.0316 µM
[20] = second compound 3.16 µM, first compound 0.1 µM
[21] = second compound 3.16 µM, first compound 0.316 µM
[22] = second compound 3.16 µM, first compound 1 µM
[23] = second compound 3.16 µM, first compound 3.16 µM
[24] = second compound 3.16 µM, first compound 10 µM
[25] = second compound 10 µM, first compound 0.0316 µM
[26] = second compound 10 µM, first compound 0.1 µM
[27] = second compound 10 µM, first compound 0.316 µM
[28] = second compound 10 µM, first compound 1 µM
[29] = second compound 10 µM, first compound 3.16 µM
[30] = second compound 10 µM, first compound 10 µM

| SMILES | IC50 (second compound 0.1 µM) | IC50 (second compound 0.316 µM) | IC50 (second compound 1 µM) | IC50 (second compound 3.16 µM) | IC50 (second compound 10 µM) | viability, T/C [1] | viability, T/C [2] | viability, T/C [3] | viability, T/C [4] | viability, T/C [5] | viability, T/C [6] | viability, T/C [7] | viability, T/C [8] | viability, T/C [9] | viability, T/C [10] | viability, T/C [11] | viability, T/C [12] | viability, T/C [13] | viability, T/C [14] | viability, T/C [15] | also measured |
| --- | --- | --- | --- | --- | --- | --- | --- | --- | --- | --- | --- | --- | --- | --- | --- | --- | --- | --- | --- | --- | --- |
| COC(=O)c1ccc2c(C(=Nc3ccc(N(C)C(=O)CN4CCN(C)CC4)cc3)c3ccccc3)c(O)[nH]c2c1 + C=CC(=O)N1CCN(c2nc(=O)n(-c3c(C)ccnc3C(C)C)c3nc(-c4c(O)cccc4F)c(F)cc23)C(C)C1 | < 31.6 nM | < 31.6 nM | < 31.6 nM | < 31.6 nM | < 31.6 nM | 40.2% | 30.1% | 25.5% | 23.3% | 24.8% | 13% | 36.4% | 29.9% | 26.8% | 25.7% | 21.7% | 14.3% | 37.2% | 32.5% | 26.1% | viability, T/C [16]: 26.9%; viability, T/C [17]: 26.7%; viability, T/C [18]: 2.61%; viability, T/C [19]: 40.5%; viability, T/C [20]: 31.5%; viability, T/C [21]: 29.9%; viability, T/C [22]: 27.5%; viability, T/C [23]: 22.7%; viability, T/C [24]: 2.66%; viability, T/C [25]: 47%; viability, T/C [26]: 36.2%; viability, T/C [27]: 55.4%; viability, T/C [28]: 30.9%; viability, T/C [29]: 10.2%; viability, T/C [30]: 1.93% |
| O=C(c1cc(Cc2n[nH]c(=O)c3ccccc23)ccc1F)N1CCN(C(=O)C2CC2)CC1 + C=CC(=O)N1CCN(c2nc(=O)n(-c3c(C)ccnc3C(C)C)c3nc(-c4c(O)cccc4F)c(F)cc23)C(C)C1 | 39.7 nM | 271 nM | 708 nM | 249 nM | < 31.6 nM | 50.3% | 47.2% | 37.5% | 35.6% | 27.7% | 27.4% | 64% | 61.2% | 45.5% | 40.4% | 37.6% | 29.3% | 59.3% | 54.7% | 53.2% | viability, T/C [16]: 49.8%; viability, T/C [17]: 40.8%; viability, T/C [18]: 31.6%; viability, T/C [19]: 58.9%; viability, T/C [20]: 50.5%; viability, T/C [21]: 48.3%; viability, T/C [22]: 47.8%; viability, T/C [23]: 42.1%; viability, T/C [24]: 37.4%; viability, T/C [25]: 52%; viability, T/C [26]: 46.1%; viability, T/C [27]: 48.8%; viability, T/C [28]: 46.7%; viability, T/C [29]: 43.2%; viability, T/C [30]: 36.8% |
